Among the data in US9340549B2, “Oxazolidinone compounds and derivatives thereof” (priority 2012, dated 2016) are IC50 and EC50 values, retold here.

Read-outs that look alike come from different tables or passages of the source.

The subject of assay [1] is total β-catenin in SW480 colorectal cells. Kind of assay: cells. The note with it: Homo sapiens. In kind it is cell-based. In short, it runs like this: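 SW480 cells in growth medium (MEM alpha, 10% heat-inactivated FBS, 10 mM HEPES) treated with a 10-point, 3-fold dilution series of TNKS inhibitor for 40–48 h at 37 °C. Lysates run on an MSD sandwich immunoassay for total β-catenin, read by electrochemiluminescence.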

The target of assay [2] is 6×HIS-tankyrase 1 (1091-1325) (Homo sapiens (Human), UniProt O95271). Description: biochemical. The class given is biochemical. Particulars: 400 nM NAD, 60 minutes at room temperature, read-out: TNKS1 IP IC50.
6×HIS-tankyrase 1 (1091-1325), sequence (O95271 1091-1325): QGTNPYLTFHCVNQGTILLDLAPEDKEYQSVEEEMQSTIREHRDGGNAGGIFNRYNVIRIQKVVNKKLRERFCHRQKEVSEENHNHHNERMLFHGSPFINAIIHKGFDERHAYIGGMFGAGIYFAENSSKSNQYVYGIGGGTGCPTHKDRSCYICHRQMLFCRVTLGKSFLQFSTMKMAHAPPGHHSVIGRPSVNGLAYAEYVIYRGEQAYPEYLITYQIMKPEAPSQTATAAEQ
In another assay the test system is Axin2 in SW480 cells. Description: cells. In kind it is cell-based. Particulars: read-out: Axin2 384 IF EC50 IP. In outline: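 SW480 cells treated 24 h at 37° C (0.5% DMSO final), fixed/permeabilized, immunostained for Axin2. ArrayScan imaging quantified ring-spot intensity; Axin2 accumulation expressed as percent of control, EC50 from concentration-response.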

[3] abbreviates: SW480 cells, 40 to 48 hours, top concentration 10 μM, read-out: SW480-Total β-Catenin IC50 IP.
Setting [4] is: Homo sapiens, SW480, 24 h, SW480 cells, 24 hours.
Setting [5] is: SW480, read-out: SW480-Total β-Catenin IC50 IP.

On to `CC1(C)OC(=O)N(c2ccc(-n3cc(-c4ccccc4)[nH]c3=O)cc2)[C@H]1c1ccccc1` [Example 80, (4S)-5,5-dimethyl-3-(4-(2-oxo-4-phenyl-2,3-dihydro-1H-imidazol-1-yl)phenyl)-4-phenyl-1,3-oxazolidin-2-one], for which the IC50 in assay [1] (setting [3]) was 1360 nM; in assay [2] ([…] enzyme) it was 3080 nM. Further, the half-maximal effective concentration (EC50) with Axin2 in SW480 cells (setting [4]) is above 12500 nM; in the assay on Axin2 in SW480 cells (SW480 cells, 24 hours), above 25000 nM.
In the case of `CC1(C)OC(=O)N([C@H]2CC[C@H](c3cnc4[nH]c(=O)n(-c5ncccn5)c4c3)CC2)[C@@H]1c1ccccc1` (single isomer, unassigned) [Example 14], the IC50 in assay [1] (setting [3]) is 923 nM; in assay [2] ([…] enzyme) it was 26.8 nM. The EC50 with Axin2 in SW480 cells (setting [4]) came to 1030 nM.
As for `CCC1(CC)OC(=O)N(c2ccc(C(=O)Nc3cccc4cccnc34)cc2)[C@H]1c1ccccc1` [Example 43, (S)-4-(5,5-diethyl-2-oxo-4-phenyloxazolidin-3-yl)-N-(quinolin-8-yl)benzamide], the IC50 in assay [1] (setting [3]) is above 10000 nM; in assay [2] ([…] enzyme) it was 786 nM. In addition, in the assay with Axin2 in SW480 cells (Homo sapiens, SW480 cells, 24 hours), the EC50 is above 25000 nM.
In the case of `CC1(C)OC(=O)N([C@H]2CC[C@H](c3cc(-c4ncccn4)c[nH]c3=O)CC2)[C@@H]1c1ccccc1` [Example 82, 3-(trans-4-((4R)-5,5-dimethyl-2-oxo-4-phenyl-1,3-oxazolidin-3-yl)cyclohexyl)-5-(2-pyrimidinyl)-2(1H)-pyridinone], the figures for the half-maximal inhibitory concentration (IC50) in assay [1] (setting [5]) and in assay [2] ([…] enzyme) were 1340 nM and 195 nM, respectively. Moreover, the EC50 in the assay on Axin2 in SW480 cells (Homo sapiens, SW480, 24 h) was found to be 7130 nM.
For `CC1(C)OC(=O)N(c2ccc(C(=O)Nc3cccc4cccnc34)cc2)[C@H]1c1cccc(F)c1` [Example 110, (S)-4-(4-(3-fluorophenyl)-5,5-dimethyl-2-oxooxazolidin-3-yl)-N-(quinolin-8-yl)benzamide], the half-maximal inhibitory concentration (IC50) worked out at 1690 nM in assay [1] (setting [3]) and 193 nM in assay [2] ([…] enzyme). Moreover, the 50% effective concentration (EC50) in the assay on Axin2 in SW480 cells (setting [4]) worked out at 2700 nM.
The like results for `CC1(C)OC(=O)N(c2ccc(-c3cc(-c4cccnc4)c[nH]c3=O)cc2)[C@H]1c1ccccc1` [Example 118, (S)-5,5-dimethyl-3-(4-(6-oxo-1,6-dihydro-[3,3′-bipyridin]-5-yl)phenyl)-4-phenyloxazolidin-2-one] were, in that order, above 10000 nM, 150 nM and above 25000 nM.
Taken in the same sequence, the figures for `CC1(C)OC(=O)N([C@H]2CC[C@H](n3c(=O)[nH]c4cnc(C(F)(F)F)cc43)CC2)[C@H]1c1ccccc1` [Example 52, (S)-5,5-dimethyl-3-((1r,4S)-4-(2-oxo-6-(trifluoromethyl)-2,3-dihydro-1H-imidazo[4,5-c]pyridin-1-yl)cyclohexyl)-4-phenyloxazolidin-2-one] were 693 nM, 25.8 nM and 1030 nM.
Taken in the same sequence, the figures for `COc1ccc([C@@H]2N(c3ccc(C(=O)Nc4cccc5cccnc45)cc3)C(=O)OC2(C)C)cc1` [Example 113, (S)-4-(4-(4-methoxyphenyl)-5,5-dimethyl-2-oxooxazolidin-3-yl)-N-(quinolin-8-yl)benzamide] were 2110 nM, 130 nM and 5220 nM.
Take `CC1(C)OC(=O)N(c2ccc(N3C(=O)Cc4ccccc43)cc2)[C@H]1c1ccccc1` [Example 18, (S)-5,5-dimethyl-3-(4-(2-oxoindolin-1-yl)phenyl)-4-phenyloxazolidin-2-one]: the values for the IC50 in assay [1] (setting [3]) and in assay [2] ([…] enzyme) were above 10000 nM and 973 nM, respectively. In addition, in the assay with Axin2 in SW480 cells (setting [4]), the EC50 was above 25000 nM.
For `CC1(C)OC(=O)N([C@H]2CC[C@H](n3c(=O)[nH]c4cnc(C#N)cc43)CC2)[C@H]1c1ccccc1` [Example 54, 1-((1S,4r)-4-((S)-5,5-dimethyl-2-oxo-4-phenyloxazolidin-3-yl)cyclohexyl)-2-oxo-2,3-dihydro-1H-imidazo[4,5-c]pyridine-6-carbonitrile], the figures for the IC50 in assay [1] (setting [3]) and in assay [2] ([…] enzyme) were 605 nM and 7.42 nM, respectively. Further, the EC50 in the assay on Axin2 in SW480 cells (setting [4]) stood at 725 nM.
The like results for `CC1(C)OC(=O)N([C@H]2CC[C@H](n3c(=O)[nH]c4cnc(Cl)cc43)CC2)[C@H]1c1ccccc1` [Example 53, (S)-3-((1r,4S)-4-(6-chloro-2-oxo-2,3-dihydro-1H-imidazo[4,5-c]pyridin-1-yl)cyclohexyl)-5,5-dimethyl-4-phenyloxazolidin-2-one] were, in that order, 284 nM, 6.52 nM and 291 nM.
The like results for `CC1(C)OC(=O)N(c2ccc(-c3cc(-c4ccccn4)c[nH]c3=O)cc2)[C@H]1c1ccccc1` [Example 115, (S)-5,5-dimethyl-3-(4-(6′-oxo-1′,6′-dihydro-[2,3′-bipyridin]-5′-yl)phenyl)-4-phenyloxazolidin-2-one] were, in that order, 1010 nM, 95.3 nM and 4380 nM.
Regarding `CC1(C)OC(=O)N(c2ccc(-n3c(=O)oc4ccccc43)cc2)[C@H]1c1ccccc1` [Example 17, (S)-3-(4-(5,5-dimethyl-2-oxo-4-phenyloxazolidin-3-yl)phenyl)benzo[d]oxazol-2(3H)-one], the results for the IC50 in assay [1] (setting [3]) and in assay [2] ([…] enzyme) were above 10000 nM and 2820 nM, respectively. Moreover, the half-maximal effective concentration (EC50) in the assay with Axin2 in SW480 cells (setting [4]) was above 25000 nM.
The like results for `CC1(C)OC(=O)N(c2ccc(C(=O)Nc3cccc4cccnc34)cc2)[C@H]1c1ccc(F)cc1` [Example 2, (S)-4-(4-(4-fluorophenyl)-5,5-dimethyl-2-oxooxazolidin-3-yl)-N-(quinolin-8-yl)benzamide] were, in that order, 1960 nM, 307 nM and 5480 nM.
Consider `CC1(C)OC(=O)N([C@H]2CC[C@H](c3c[nH]c(=O)c(-c4ncccn4)c3)CC2)[C@H]1c1ccccc1` [Example 97, (S)-5,5-Dimethyl-3-((1r,4S)-4-(6-oxo-5-(pyrimidin-2-yl)-1,6-dihydropyridin-3-yl)cyclohexyl)-4-phenyloxazolidin-2-one], for which the concentration for half-maximal inhibition (IC50) in assay [1] (setting [3]) came out at 4430 nM; in assay [2] ([…] enzyme), 267 nM. Further, in the assay on Axin2 in SW480 cells (setting [4]), the EC50 is above 25000 nM.
The like results for `CC1(C)OC(=O)N([C@H]2CC[C@@H](c3cnc(N)c(C4=NCCCN4)c3)CC2)[C@H]1c1ccccc1` [Example 76, (S)-3-((1s,4R)-4-(6-amino-5-(1,4,5,6-tetrahydropyrimidin-2-yl)pyridin-3-yl)cyclohexyl)-5,5-dimethyl-4-phenyloxazolidin-2-one] were, in that order, above 10000 nM, 9840 nM and above 25000 nM.
The like results for `CC1(C)OC(=O)N([C@H]2CC[C@H](c3cnc(N)c(C#N)c3)CC2)[C@H]1c1ccccc1` [Example 95, 2-amino-5-((1S,4r)-4-((S)-5,5-dimethyl-2-oxo-4-phenyloxazolidin-3-yl)cyclohexyl)nicotinonitrile] were, in that order, 468 nM, 6.98 nM and 474 nM.
Taken in the same sequence, the figures for `CC1(C)OC(=O)N(c2ccc(C(=O)Nc3cccc4cccnc34)cc2)[C@H]1c1cccnc1` [Example 11, (S)-4-(5,5-dimethyl-2-oxo-4-(pyridin-3-yl)oxazolidin-3-yl)-N-(quinolin-8-yl)benzamide] were 1520 nM, 392 nM and 7060 nM.
In the case of `CC1(C)OC(=O)N(c2ccc(-c3cc(-c4cccnc4)cnc3F)cc2)[C@H]1c1ccccc1` [Example 117, (S)-3-(4-(6-fluoro-[3,3′-bipyridin]-5-yl)phenyl)-5,5-dimethyl-4-phenyloxazolidin-2-one], the concentration for half-maximal inhibition (IC50) in assay [1] (setting [3]) was 1050 nM; in assay [2] ([…] enzyme) it was 193 nM. In the assay on Axin2 in SW480 cells (setting [4]), the EC50 was 5740 nM.
The like results for `COc1cccc([C@H]2N(c3ccc(C(=O)Nc4cccc5cccnc45)cc3)C(=O)OC2(C)C)c1` [Example 106, (R)-4-(4-(3-Methoxyphenyl)-5,5-dimethyl-2-oxooxazolidin-3-yl)-N-(quinolin-8-yl)benzamide] were, in that order, 6650 nM, 1880 nM and above 25000 nM.
Turning to `CC1(C)OC(=O)N(c2ccc(-n3nnc4ccccc43)cc2)[C@H]1c1ccccc1` [Example 69, (S)-3-(4-(1H-benzo[d][1,2,3]triazol-1-yl)phenyl)-5,5-dimethyl-4-phenyloxazolidin-2-one], the figures for the IC50 in assay [1] (setting [3]) and in assay [2] ([…] enzyme) were above 10000 nM and 2100 nM, respectively. For the same molecule, the EC50 in the assay with Axin2 in SW480 cells (setting [4]) was above 25000 nM.
Consider `CC1(C)OC(=O)N([C@H]2CC[C@H](c3cc(-c4ncccn4)c[nH]c3=O)CC2)C1c1ccccc1` (mixture of isomers) [Example 7, (+/−)-3-(trans-4-((4S/R)-5,5-Dimethyl-2-oxo-4-phenyl-1,3-oxazolidin-3-yl)cyclohexyl)-5-(2-pyrimidinyl)-2(1H)-pyridinone], for which the half-inhibitory concentration (IC50) was 695 nM in assay [1] (setting [5]) and 31.8 nM in assay [2] (0.25 nM enzyme). Besides, the EC50 in the assay on Axin2 in SW480 cells (Homo sapiens, SW480, 24 h) was 1460 nM.
For `CC1(C)OC(=O)N([C@H]2CC[C@H](NC(=O)n3ccc4cccnc43)CC2)[C@H]1c1ccccc1` [Example 58, N-(trans-4-((4S)-5,5-dimethyl-2-oxo-4-phenyl-1,3-oxazolidin-3-yl)cyclohexyl)-1H-pyrrolo[2,3-b]pyridine-1-carboxamide], the IC50 in assay [1] (setting [3]) amounted to 979 nM; in assay [2] ([…] enzyme), 7.46 nM. Also, the EC50 in the assay on Axin2 in SW480 cells (setting [4]) is 828 nM.
